Each structure is given as a SMILES string.

Data on 14 compounds can be found in patent US6500853B1, “Inhibitors of phospholipase enzymes” (Genetics Institute, LLC, priority 1998, dated 2002).

Assay [1] has as its system Rat Carrageenan-Induced Footpad Edema. As to the kind of experiment: Rat Carrageenan-Induced Footpad Edema Test. Conditions: footpad volume 3 hours after carrageenan; for inhibition in vivo at 2 mg/kg / inhibition in vivo at 10 mg/kg / inhibition in vivo at 5 mg/kg: Rattus norvegicus, 3 h, read-out: PERCENT INHIBITION; for inhibition in vivo at 2 mg/kg / inhibition in vivo at 10 mg/kg: po; for inhibition in vivo at 5 mg/kg: iv. The assay is classed as in vivo, male Sprague Dawley rats. (Carrageenan injected into the paw causes an acute inflammation.)

Assay [2] addresses T1, cPLA2 (Homo sapiens, UniProt P47712).
T1 sequence (P47712 1-749): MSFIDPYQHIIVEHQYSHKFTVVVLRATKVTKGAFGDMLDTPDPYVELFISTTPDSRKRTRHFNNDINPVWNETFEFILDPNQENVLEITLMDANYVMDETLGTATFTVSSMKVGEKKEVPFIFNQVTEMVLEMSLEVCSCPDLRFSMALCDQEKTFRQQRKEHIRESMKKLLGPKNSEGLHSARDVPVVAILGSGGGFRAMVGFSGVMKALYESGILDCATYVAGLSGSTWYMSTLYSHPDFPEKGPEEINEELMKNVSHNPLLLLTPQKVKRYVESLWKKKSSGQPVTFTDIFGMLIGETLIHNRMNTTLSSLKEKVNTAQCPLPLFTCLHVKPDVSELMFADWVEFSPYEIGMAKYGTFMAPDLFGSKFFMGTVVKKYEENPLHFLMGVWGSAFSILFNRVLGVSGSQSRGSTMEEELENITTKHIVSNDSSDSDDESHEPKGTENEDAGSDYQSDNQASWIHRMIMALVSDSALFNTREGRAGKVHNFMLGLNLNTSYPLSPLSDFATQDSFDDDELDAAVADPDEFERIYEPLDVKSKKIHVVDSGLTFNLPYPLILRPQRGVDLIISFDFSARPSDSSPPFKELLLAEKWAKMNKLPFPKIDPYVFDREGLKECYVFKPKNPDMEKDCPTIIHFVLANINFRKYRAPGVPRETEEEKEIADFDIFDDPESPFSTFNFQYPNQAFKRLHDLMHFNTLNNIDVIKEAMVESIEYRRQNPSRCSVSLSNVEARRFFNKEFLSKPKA
As to the kind of experiment: Coumarin Assay (cPLA2 inhibition). It is filed as biochemical. A digest of the protocol: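 Percent inhibition at the stated concentration, from the rate of 460 nm emission rise (360 nm excitation) per minute. Reaction started by adding 4 μg enzyme to compound and 60 μM 7-hydroxycoumarinyl 6-heptenoate in Hepes buffer pH 7.5 with 1 mM EDTA.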

Where [3] appears, read: CONCENTRATION 50 micromolar, read-out: PERCENT INHIBITION @.

One may read the inhibition as how much of the control response was suppressed. With `O=C(Nc1ccc2c(c1)c(Cc1ccc(C(=O)O)cc1)cn2C(c1ccccc1)c1ccccc1)OC1CCCC1` [Example 52, 4-[(1-benzhydryl-5-{[(cyclopentyloxy)carbonyl]amino}-1H-indol-3-yl)methyl]benzoic acid], the inhibition in vivo at 2 mg/kg in assay [1] (PO, 2 mg/Kg) is -6.75%. In addition, in assay [1] (PO, 10 mg/Kg), the inhibition in vivo at 10 mg/kg was 3.33%. Also, the inhibition at 19 µM in assay [2] (CONCENTRATION 19 micromolar, read-out: PERCENT INHIBITION @) was found to be 50%. Moreover, the inhibition at 20 µM in assay [2] (CONCENTRATION 20 micromolar, read-out: PERCENT INHIBITION @) was found to be 50%.
On to `O=C(O)C(=O)c1cn(C(c2ccccc2)c2ccccc2)c2ccc(NC(=O)C3CCCC3)cc12` [Example 115], for which the “PERCENT INHIBITION” value turned out to be 1.24% in assay [1] (PO, 2 mg/Kg) and 18.46% in assay [1] (PO, 10 mg/Kg). The “PERCENT INHIBITION @” value in assay [2] (CONCENTRATION 50 micromolar) was determined as 89%; in assay [2] (CONCENTRATION 100 micromolar) it was 20%; in assay [2] (CONCENTRATION 250 micromolar), 50%.
With `O=C(O)Cc1cn(Cc2ccccc2)c2ccc(-c3cc4ccccc4o3)cc12` [Example 80, 2-[5-(1-benzofuran-2-yl)-1-benzyl-1H-indol-3-yl]acetic acid], in assay [1] (IV, 5 mg/Kg), the inhibition in vivo at 5 mg/kg is 10.2%. In addition, in assay [2] (CONCENTRATION 48 micromolar, read-out: PERCENT INHIBITION @), the inhibition at 48 µM was determined as 50%. Also, in assay [2] (setting [3]), the inhibition at 50 µM stood at 60%.
For the compound `COc1cc(C(=O)O)ccc1Cc1cn(C(c2ccccc2)c2ccccc2)c2ccc(NS(=O)(=O)c3c(C)noc3C)cc12` [Example 96, 4-[(1-benzhydryl-5-{[(3,5-dimethyl-4-isoxazolyl)sulfonyl]amino}-1H-indol-3-yl)methyl]-3-methoxybenzoic acid], in assay [1] (PO, 2 mg/Kg), the inhibition in vivo at 2 mg/kg was found to be 29.4%. Besides, the inhibition in vivo at 10 mg/kg in assay [1] (PO, 10 mg/Kg) was 22%. Further, in assay [2] (CONCENTRATION 8 micromolar, read-out: PERCENT INHIBITION @), the inhibition at 8 µM stood at 50%. In addition, the inhibition at 10.5 µM in assay [2] (CONCENTRATION 10.5 micromolar, read-out: PERCENT INHIBITION @) came out at 50%.
As for `COc1cc(C(=O)O)ccc1Cc1cn(C(c2ccccc2)c2ccccc2)c2ccc(NS(=O)(=O)c3ccc(OC(F)(F)F)cc3)cc12` [Example 93, 4-{[1-benzhydryl-5-({[4-(trifluoromethoxy)phenyl]sulfonyl}amino)-1H-indol-3-yl]methyl}-3-methoxybenzoic acid], in assay [1] (PO, 2 mg/Kg), the inhibition in vivo at 2 mg/kg was -3.02%. The inhibition in vivo at 10 mg/kg in assay [1] (PO, 10 mg/Kg) was 9.91%. Also, in assay [2] (CONCENTRATION 4.2 micromolar, read-out: PERCENT INHIBITION @), the inhibition at 4.2 µM is 50%. Also, the inhibition at 4.9 µM in assay [2] (CONCENTRATION 4.9 micromolar, read-out: PERCENT INHIBITION @) stood at 50%.
As to `COc1cc(C(=O)O)ccc1Cc1cn(C(C)C)c2ccc(NC(=O)OC3CCCC3)cc12` [Example 7, 4-[(5-{[(cylopentyloxy)carbonyl]amino}-1-isopropyl-1H-indol-3yl)methyl]-3-methoxybenzoic acid], in assay [1] (IV, 5 mg/Kg), the “PERCENT INHIBITION” value is recorded as −0.65%. The entries for the “PERCENT INHIBITION @” value in assay [2] (CONCENTRATION 50 micromolar) and in assay [2] (CONCENTRATION 235 micromolar) were 11% and 50%, respectively.
Regarding `COc1cc(C(=O)O)ccc1Cc1cn(C(c2ccccc2)c2ccccc2)c2ccc(NS(=O)(=O)c3ccc(C(F)(F)F)cc3)cc12` [Example 89, 4-{[1-benzhydryl-5-({[4-(trifluoromethyl)phenyl]sulfonyl}amino)-1H-indol-3-yl]methyl}-3-methoxybenzoic acid], the inhibition in vivo at 2 mg/kg in assay [1] (PO, 2 mg/Kg) came to 14.3%. In addition, the inhibition in vivo at 10 mg/kg in assay [1] (PO, 10 mg/Kg) worked out at 16.4%. Further, the inhibition at 4.4 µM in assay [2] (CONCENTRATION 4.4 micromolar, read-out: PERCENT INHIBITION @) came to 50%. In addition, the inhibition at 4.8 µM in assay [2] (CONCENTRATION 4.8 micromolar, read-out: PERCENT INHIBITION @) was determined as 50%.
Consider `O=C(Nc1ccc2c(c1)c(Cc1ccc(C(=O)NS(=O)(=O)C(F)(F)F)cc1)cn2C(c1ccccc1)c1ccccc1)OC1CCCC1` [Example 54], for which the “PERCENT INHIBITION” value in assay [1] (PO, 2 mg/Kg) is on record as 2.47%; in assay [1] (PO, 10 mg/Kg) it was 14.29%. Besides, the “PERCENT INHIBITION @” value in assay [2] (CONCENTRATION 2.8 micromolar) and in assay [2] (CONCENTRATION 3.9 micromolar) was 50% each time.
Regarding `O=C(O)c1ccc(Cc2cn(C(c3ccccc3)c3ccccc3)c3ccc([N+](=O)[O-])cc23)cc1` [Example 50, 4-[(-benzhydryl-5-nitro-1H-indol-3-yl)methyl]benzoic acid], the “PERCENT INHIBITION” value in assay [1] (PO, 2 mg/Kg) was 5.44%; in assay [1] (PO, 10 mg/Kg) it was 12.34%. Also, the “PERCENT INHIBITION @” value in assay [2] (CONCENTRATION 0.8 micromolar) amounted to 50%; in assay [2] (CONCENTRATION 0.85 micromolar), 50%; in assay [2] (CONCENTRATION 1.05 micromolar), 50%; in assay [2] (CONCENTRATION 2.5 micromolar), 81%.
With `O=C(O)c1cn(C(c2ccccc2)c2ccccc2)c2ccc(NC(=O)C3CCCC3)cc12` [Example 114, 1-benzhydryl-5-[(cyclopentylcarbonyl)amino]-1H-indole-3-carboxylic acid], the inhibition in vivo at 2 mg/kg in assay [1] (PO, 2 mg/Kg) came to 12.2%. For the same compound, the inhibition in vivo at 10 mg/kg in assay [1] (PO, 10 mg/Kg) was found to be 22.2%. In addition, the inhibition at 100 µM in assay [2] (CONCENTRATION 100 micromolar, read-out: PERCENT INHIBITION @) worked out at 45%. For the same compound, the inhibition at 152 µM in assay [2] (CONCENTRATION 152 micromolar, read-out: PERCENT INHIBITION @) was determined as 50%. In assay [2] (CONCENTRATION 170 micromolar, read-out: PERCENT INHIBITION @), the inhibition at 170 µM turned out to be 50%.
Turning to `O=C(O)c1ccc(Cc2cn(C(c3ccccc3)c3ccccc3)c3ccc(Br)cc23)cc1` [Example 51, 4-[(1-benzhydryl-5-bromo-1H-indol-3-yl)methyl]benzoic acid], in assay [1] (PO, 2 mg/Kg), the inhibition in vivo at 2 mg/kg is 3.23%. For the same compound, the inhibition in vivo at 10 mg/kg in assay [1] (PO, 10 mg/Kg) is 15.4%. The inhibition at 0.6 µM in assay [2] (CONCENTRATION 0.6 micromolar, read-out: PERCENT INHIBITION @) worked out at 50%. Besides, in assay [2] (CONCENTRATION 0.8 micromolar, read-out: PERCENT INHIBITION @), the inhibition at 0.8 µM turned out to be 50%. Also, in assay [2] (CONCENTRATION 0.9 micromolar, read-out: PERCENT INHIBITION @), the inhibition at 0.9 µM is 50%.
With `O=C(O)/C=C/c1cn(C(c2ccccc2)c2ccccc2)c2ccc([N+](=O)[O-])cc12` [Example 87A, (E)-3-{1-benzhydryl-5-nitro-1H-indol-3-yl}-2-propenoic acid], the inhibition in vivo at 2 mg/kg in assay [1] (PO, 2 mg/Kg) came out at 12.9%. For the same compound, in assay [1] (PO, 10 mg/Kg), the inhibition in vivo at 10 mg/kg is 25.4%. The inhibition at 50 µM in assay [2] (setting [3]) was 33%. Besides, the inhibition at 95 µM in assay [2] (CONCENTRATION 95 micromolar, read-out: PERCENT INHIBITION @) was 50%.
`Cc1ccc(S(=O)(=O)NC(=O)c2cccc(NC(=O)C(=O)c3cn(Cc4ccc(Cc5ccccc5)cc4)c4ccc(OCc5ccccc5)cc34)c2)cc1` [Example 76, 2-[1-(4-benzylbenzyl)-5-(benzyloxy)-1H-indol-3-yl]-N-[3-({[(4-methylphenyl)sulfonyl]amino}carbonyl)phenyl]-2-oxoacetamide]: the inhibition in vivo at 5 mg/kg in assay [1] (IV, 5 mg/Kg) came out at 14.8%. For the same compound, the inhibition at 4 µM in assay [2] (CONCENTRATION 4 micromolar, read-out: PERCENT INHIBITION @) turned out to be 50%.
For the compound `CCCCNC(=O)Nc1ccc2c(c1)c(Cc1ccc(C(=O)NS(=O)(=O)C(F)(F)F)cc1OC)cn2C(c1ccccc1)c1ccccc1` [Example 42, N-{4-[(1-benzhydryl-5-{[(butylamino)carbonyl]amino}-1H-indol-3-yl)methyl]-3-methoxybenzoyl}(trifluoro)methanesulfonamide], in assay [1] (IV, 5 mg/Kg), the inhibition in vivo at 5 mg/kg came out at 7.72%. The inhibition at 2.2 µM in assay [2] (CONCENTRATION 2.2 micromolar, read-out: PERCENT INHIBITION @) was determined as 50%. For the same compound, in assay [2] (CONCENTRATION 3 micromolar, read-out: PERCENT INHIBITION @), the inhibition at 3 µM was determined as 50%. Also, the inhibition at 3.8 µM in assay [2] (CONCENTRATION 3.8 micromolar, read-out: PERCENT INHIBITION @) amounted to 50%.
